Data reported in patent US10988481B2, “Potent and selective mu opioid receptor modulators” (VIRGINIA COMMONWEALTH UNIVERSITY, priority 2016, dated 2021).
Read-outs that look alike come from different tables or passages of the source.

What was measured:
DOR = DOR (Homo sapiens (Human), UniProt P41143); test: Competition binding assay at DOR ([3H]DPN, CHO cell membranes)
Protocol: (§1) Chinese hamster ovary (CHO) cells expressing MOR, KOR and DOR were cultured for use in this assay. The culture media used for MOR CHO cells contained 500 mL DMEM/F12 media, 10% FBS, 1% penicillin/streptomycin, and 2.75 mL G418. The DOR and KOR CHO cells were cultured in the same media except that 5% FBS was used instead of 10%. The cells are allowed to grow until they are 80-95% confluent after which they are split. The cells are continuously cultured and split until there were sufficient cells for the studies.
(§2) Once the cells reached confluence, cells were harvested, centrifuged at 1000×g for 10 minutes, and suspended in membrane buffer (50 mM Tris, 3 mM MgCl2, and 1 mM EGTA, pH 7.4). The cells were then homogenized, centrifuged at 50000×g for 10 minutes, and re-homogenized in membrane buffer. A Bradford assay was conducted to determine membrane protein concentrations, and membrane protein preps (3 μg/aliquot) were stored at −80° C.
(§3) The competition binding assay was conducted to determine the affinity and selectivity of the synthesized compounds to MOR over KOR and DOR. The Kd and Bmax values for [^3H]NLX at MOR and [^3H]DPN at KOR had been determined previously. […] [^3H]NLX was used to label MOR whilst [^3H]DPN was used to label both DOR and KOR. The potency of the new compounds in displacing the specific binding of the radioligand was determined by linear regression analysis of Hill plots. […] The IC50 values were determined and converted to Ki values using the Cheng—Prusoff equation (Rosenblum, A. et al. Exp Clin Psychopharmacol. 2008, 16 (5), 405-416).

MOR = MOR (Mus musculus, UniProt P42866); format: biochemical; conditions: relative to 3 μM DAMGO at MOR
Protocol: The [^35S]GTPγS functional assay was used to determine whether the synthesized compounds are agonists. The agonist's activity of the compounds was measured relative to 3 μM DAMGO at MOR. In this assay, upon receptor activation due to agonist binding, [^35S]GTPγS binds to the Gα subunit. Thus, [^35S]GTPγS replaces endogenous GTP and since the γ-thiophosphate bond is resistant to hydrolysis by GTPase, [^35S]GTPγS labelled Gα subunits accumulate and can be quantified by measuring the amount of incorporated [^35S].
The Bradford assay was then conducted to determine the concentration of the membrane protein using BSA as the standard. Suitable dilutions of membrane protein, [^35S]GTPγS), cold GTPγS, DAMGO and GDP were made in TME. The desired amount of the protein per tube was 10 μg. All the test-tubes were vortexed and incubated in the shaking water bath at 30° C. for 90 minutes, after which bound radioligand was filtered and rinsed three times with cold Tris buffer. The filtered bound radioligand was then transferred into scintillation tubes with 4 mL of scintillation fluid and radioligand was quantified. However, counting was delayed for 9 hrs to allow the radioactivity to enter the solution. Percent DAMGO stimulation was defined as (net stimulated binding of test compound/net stimulated binding of DAMGO)×100%. The normalized data were subjected to nonlinear regression analysis to determine EC50 and Emax values using Prism 6.0 software (GraphPad Software, San Diego, Calif.). The assay was performed in triplicate and repeated at least three times.

KOR = KOR (Homo sapiens (Human), UniProt P41145); test: Competition binding assay at KOR ([3H]DPN, CHO cell membranes)
Protocol: as §1, §2, §3

Swiss Webster mice = test: Warm-water tail immersion assay, blockage of the antinociceptive effect of morphine; conditions: for Blockage of morphine-mediated antinociception: 10 mg/kg s.c. 5 min before morphine 10 mg/kg, tested 20 min after morphine; for AD50 (95% CL), opioid antagonist effect: dose-dependent study against morphine, s.c.
Protocol: FIG. 1A-D. Warm-water tail immersion assay in mice (n=5) at 56±0.1° C. All tested compounds were administered subcutaneously (s.c.). […] Compounds (10 mg/kg) were injected at Time 0. Twenty minutes after injection, tail flick was assessed with hot water. […] Tested compounds (10 mg/kg) were injected at Time 0. Five minutes later, morphine (10 mg/kg) was administered. Twenty minutes after morphine injection, tail flick was tested using hot water.
(§4) For the in vivo studies, male Swiss Webster mice were used for both the warm-water immersion and opioid withdrawal assays. The mice weighed 23-35 g and were housed five to a cage in animal care quarters maintained at 22° C. on a 12 hour light-dark cycle with food and water available ad libitum. The mice were transferred to the test room and the tests were then conducted 18 hours later. Protocols and procedures were approved by the Institutional Animal Care and Use Committee at Virginia Commonwealth University Medical Center and complied with the recommendations of the International Association for the Study of Pain.
Each indole analogue of naltrexamine was tested for its ability to produce antinociception and/or to antagonize the antinociceptive effects of morphine in mice using the warm-water tail immersion assay described by Coderre and Rollman. The a water bath temperature was maintained at 56±0.1° C. The baseline latency (control) was determined before injecting the compounds into the mice. […] To test for agonism, the tail immersion was conducted 20 min (time that morphine effect starts to peak) after injecting the indole analogues of 6α/β-naltrexamine. To prevent tissue damage, a 10 s maximum cut off time was imposed. Antinociceptive response was calculated as the percentage maximum possible effect (% MPE), where % MPE=[(test−control)/(10−control)]×100. In the antagonism study, the 6α/β-naltrexamine derivatives were given 5 min before morphine. The tail immersion test was conducted 20 min after giving morphine. % MPE was calculated for each mouse using at least five mice per drug. AD50 values were calculated using the least-squares linear regression analysis followed by calculation of 95% confidence interval by Bliss method. A higher % MPE indicates a stronger antinociception effect by the ligand.

morphine-pelleted mice = test: Opioid withdrawal assay in chronic morphine-exposed (pelleted) mice
Protocol: as §4
A 75 mg morphine pellet was implanted in to the base of the neck of the mice and the mice were then given time to recover in their home cages before the test was conducted. The mice were then allowed for 30 min habituation to an open-topped, square, clear Plexiglas observation chamber (26×26×26 cm^3) with lines partitioning the bottom into quadrants before they were given antagonist. All drugs and test compounds were administered subcutaneously (s.c.). […] Withdrawal commenced within 3 min after antagonist administration. Escape jumps, paw tremors and wet dog shakes were quantified by counting their occurrences over 20 min for each mouse using five mice per drug. The data is given as the mean±SEM. One-way ANOVA followed by the post hoc Dunnett test were performed to assess significance using the Prism 6.0 software.

[1] = [3H]DPN, DOR CHO membranes, read-out: Ki (nM) ± SEM δ
[2] = [3H]DPN, KOR CHO membranes, read-out: Ki (nM) ± SEM κ
[3] = 1 mg/kg s.c., morphine-pelleted mice, counted over 20 min, mean±SEM

Chain of DOR (P41143 whole entry, looked up): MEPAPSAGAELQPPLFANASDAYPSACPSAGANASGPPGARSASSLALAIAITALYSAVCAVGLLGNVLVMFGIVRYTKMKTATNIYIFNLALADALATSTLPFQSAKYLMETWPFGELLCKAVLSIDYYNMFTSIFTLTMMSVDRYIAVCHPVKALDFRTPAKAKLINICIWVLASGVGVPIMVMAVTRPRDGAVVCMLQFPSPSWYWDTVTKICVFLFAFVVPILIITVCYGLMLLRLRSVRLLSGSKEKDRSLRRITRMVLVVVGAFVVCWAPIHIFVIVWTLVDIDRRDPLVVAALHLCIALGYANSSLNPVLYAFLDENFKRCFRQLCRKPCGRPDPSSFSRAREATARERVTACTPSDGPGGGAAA
Chain of MOR (P42866 whole entry, looked up): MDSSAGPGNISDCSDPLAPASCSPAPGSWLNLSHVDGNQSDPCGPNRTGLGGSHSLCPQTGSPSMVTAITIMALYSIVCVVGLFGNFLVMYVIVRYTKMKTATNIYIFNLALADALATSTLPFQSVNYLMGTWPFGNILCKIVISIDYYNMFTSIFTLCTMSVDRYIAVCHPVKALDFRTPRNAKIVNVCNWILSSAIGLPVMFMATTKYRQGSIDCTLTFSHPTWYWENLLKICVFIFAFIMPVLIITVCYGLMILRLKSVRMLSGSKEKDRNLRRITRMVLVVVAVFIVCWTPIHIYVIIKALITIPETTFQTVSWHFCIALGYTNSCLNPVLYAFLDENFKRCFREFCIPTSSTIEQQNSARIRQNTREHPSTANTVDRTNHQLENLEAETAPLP

SMILES	Ki (DOR; [1]) [nM]	Emax(% DAMGO) ± SEM (MOR) [% DAMGO]	Ki (KOR; [2]) [nM]	other results
Cl.O=C(N[C@H]1CC[C@@]2(O)[C@H]3Cc4ccc(O)c5c4[C@@]2(CCN3CC2CC2)[C@H]1O5)c1cc2ccccc2[nH]1 [Compound 1, 17-Cyclopropylmethyl-3,14β-dihydroxy-4,5α-epoxy-6α-(indole-2-carboxamido)morphinan]	14.2 ± 2.78	52.0 ± 13.5	0.926 ± 0.125	
Cl.O=C(N[C@H]1CC[C@@]2(O)[C@H]3Cc4ccc(O)c5c4[C@@]2(CCN3CC2CC2)[C@H]1O5)c1c[nH]c2ccccc12 [Compound 2, 17-Cyclopropylmethyl-3,14β-dihydroxy-4,5α-epoxy-6α-(indole-3-carboxamido)morphinan]	10.5 ± 2.89	35.4 ± 4.8	0.984 ± 0.125	
Cl.O=C(N[C@H]1CC[C@@]2(O)[C@H]3Cc4ccc(O)c5c4[C@@]2(CCN3CC2CC2)[C@H]1O5)c1cccc2[nH]ccc12 [Compound 3, 17-Cyclopropylmethyl-3,14β-dihydroxy-4,5α-epoxy-6α-(indole-4-carboxamido)morphinan]	9.26 ± 2.83	28.9 ± 1	1.49 ± 0.349	
Cl.O=C(N[C@H]1CC[C@@]2(O)[C@H]3Cc4ccc(O)c5c4[C@@]2(CCN3CC2CC2)[C@H]1O5)c1ccc2[nH]ccc2c1 [Compound 4, 17-Cyclopropylmethyl-3,14β-dihydroxy-4,5α-epoxy-6α-(indole-5-carboxamido)morphinan]	26.7 ± 7.72	32.2 ± 1.3	3.45 ± 0.994	
Cl.O=C(N[C@H]1CC[C@@]2(O)[C@H]3Cc4ccc(O)c5c4[C@@]2(CCN3CC2CC2)[C@H]1O5)c1ccc2cc[nH]c2c1 [Compound 5, 17-Cyclopropylmethyl-3,14β-dihydroxy-4,5α-epoxy-6α-(indole-6-carboxamido)morphinan]	12.8 ± 3.36	27.0 ± 0.31	1.63 ± 0.277	
Cl.O=C(Cc1c[nH]c2ccccc12)N[C@H]1CC[C@@]2(O)[C@H]3Cc4ccc(O)c5c4[C@@]2(CCN3CC2CC2)[C@H]1O5 [Compound 7, 17-Cyclopropylmethyl-3,14β-dihydroxy-4,5α-epoxy-6α-[2-(indol-3-yl)acetamido)morphinan]	9.17 ± 2.67	33.88 ± 1.43	3.13 ± 0.449	
Cl.O=C(CCc1c[nH]c2ccccc12)N[C@H]1CC[C@@]2(O)[C@H]3Cc4ccc(O)c5c4[C@@]2(CCN3CC2CC2)[C@H]1O5 [Compound 8, 17-Cyclopropylmethyl-3,14β-dihydroxy-4,5α-epoxy-6α-[3-(indol-3-yl)propanamido)morphinan]	31.2 ± 8.12	41.10 ± 6.54	1.36 ± 0.178	
Cl.O=C(CCCc1c[nH]c2ccccc12)N[C@H]1CC[C@@]2(O)[C@H]3Cc4ccc(O)c5c4[C@@]2(CCN3CC2CC2)[C@H]1O5 [Compound 9, 17-Cyclopropylmethyl-3,14β-dihydroxy-4,5α-epoxy-6α-[4-(indol-3-yl)butanamido)morphinan]	6.73 ± 0.396	48.36 ± 5.17	0.149 ± 0.033	
O=C(N[C@@H]1CC[C@@]2(O)[C@H]3Cc4ccc(O)c5c4[C@@]2(CCN3CC2CC2)[C@H]1O5)c1c[nH]c2ccccc12 [Compound 11, 17-Cyclopropylmethyl-3,14β-dihydroxy-4,5α-epoxy-6β-(indole-3-carboxamido)morphinan]				Ki (DOR): 7.17 ± 1.23 nM; Ki (KOR): 0.16 ± 0.005 nM
Cl.O=C(N[C@@H]1CC[C@@]2(O)[C@H]3Cc4ccc(O)c5c4[C@@]2(CCN3CC2CC2)[C@H]1O5)c1cccc2[nH]ccc12 [Compound 12, 17-Cyclopropylmethyl-3,14β-dihydroxy-4,5α-epoxy-6β-(indole-4-carboxamido)morphinan]		15.21 ± 3.13		Ki (DOR): 45.9 ± 16.3 nM; Ki (KOR): 1.94 ± 0.299 nM
Cl.O=C(N[C@@H]1CC[C@@]2(O)[C@H]3Cc4ccc(O)c5c4[C@@]2(CCN3CC2CC2)[C@H]1O5)c1ccc2[nH]ccc2c1 [Compound 13, 17-Cyclopropylmethyl-3,14β-dihydroxy-4,5α-epoxy-6β-(indole-5-carboxamido)morphinan]		20.15 ± 4.37		Ki (DOR): 17.7 ± 4.78 nM; Ki (KOR): 0.512 ± 0.038 nM
O=C(N[C@@H]1CC[C@@]2(O)[C@H]3Cc4ccc(O)c5c4[C@@]2(CCN3CC2CC2)[C@H]1O5)c1ccc2cc[nH]c2c1 [Compound 14, 17-Cyclopropylmethyl-3,14β-dihydroxy-4,5α-epoxy-6β-(indole-6-carboxamido)morphinan]				Ki (DOR): 6.23 ± 0.825 nM; Ki (KOR): 0.166 ± 0.012 nM
Cl.O=C(CCc1c[nH]c2ccccc12)N[C@@H]1CC[C@@]2(O)[C@H]3Cc4ccc(O)c5c4[C@@]2(CCN3CC2CC2)[C@H]1O5 [Compound 17, 17-Cyclopropylmethyl-3,14β-dihydroxy-4,5α-epoxy-60-[3-(indol-3-yl)propanamido)morphinan]	49 ± 4.72	40.43 ± 5.28	0.387 ± 0.045	Blockage of morphine-mediated antinociception (Swiss Webster mice): effectively blocked morphine-mediated antinociception; AD50 (95% CL), opioid antagonist effect (Swiss Webster mice): 7.30 (3.38-15.74) mg/kg
Cl.O=C(CCCc1c[nH]c2ccccc12)N[C@@H]1CC[C@@]2(O)[C@H]3Cc4ccc(O)c5c4[C@@]2(CCN3CC2CC2)[C@H]1O5 [Compound 18, 17-Cyclopropylmethyl-3,14β-dihydroxy-4,5α-epoxy-6β-[4-(indol-3-yl)butanamido)morphinan]	25.3 ± 4.34	36.29 ± 4.11	0.175 ± 0.037	Blockage of morphine-mediated antinociception (Swiss Webster mice): effectively blocked morphine-mediated antinociception; AD50 (95% CL), opioid antagonist effect (Swiss Webster mice): 9.64 (3.17-29.29) mg/kg
O=C1CC[C@@]2(O)[C@H]3Cc4ccc(O)c5c4[C@@]2(CCN3CC2CC2)[C@H]1O5 [NTX, naltrexone, reference compound]				Escape jumps (morphine-pelleted mice; [3]): 39.0±14.2 times; Paw tremors (morphine-pelleted mice; [3]): 43.4±15.7; Wet-dog shakes (morphine-pelleted mice; [3]): 18.6±1.2 times; Diarrhea (morphine-pelleted mice; 1 mg/kg, morphine pelleted mice (not in placebo pelleted mice)): produced diarrhea
